Laboratory results as given in ChEMBL document CHEMBL4330075, “Discovery of Novel Quinoline-Chalcone Derivatives as Potent Antitumor Agents with Microtubule Polymerization Inhibitory Activity” (J Med Chem, 2019).
pIC50: −log10 of the molar value. Converted amounts (≈) assume the structure as drawn.

How the values were obtained:
K562 [1] = experiment: Cell cycle arrest in human K562 cells assessed as accumulation of cells at G2 phase at 10 nM after 48 hrs by propidium iodide staining-based flow cytometric analysis (reference value: 15.82%); type: functional
HCT-8 = experiment: Antiproliferative activity against human HCT8 cells after 72 hrs by MTT assay; type: functional, cell-based; conditions: HCT-8, 72 h
K562 [2] = experiment: Induction of apoptosis in human K562 assessed as late apoptotic cells at 20 nM after 48 hrs by Annexin V-APC/propidium iodide staining-based flow cytometric analysis (reference value: 1.30%); type: functional
K562 [3] = experiment: Cell cycle arrest in human K562 cells assessed as accumulation of cells at G2 phase at 20 nM after 48 hrs by propidium iodide staining-based flow cytometric analysis (reference value: 15.82%); type: functional
[4] = Selectivity index, ratio of IC50 for human LO2 cells to IC50 for human HepG2 cells; type: toxicity; conditions: LO2 cells and HepG2 cells, read-out: Ratio IC50
K562 [5] = experiment: Induction of mitochondrial membrane potential disruption in human K562 cells assessed as collapsed mitochondrial membrane potential at 5 nM after 48 hrs by JC-1 staining-based flow cytometric analysis (reference value: 0.63%); type: functional
[6] = Antitumor activity against […] H22 cells xenografted in ICR mouse assessed as reduction in tumor weight at 20 mg/kg, iv qd for 21 consecutive days and measured every 2 days relative to control; type: functional; parameters: scale not given: the % may be the effect or the level left
K562 [7] = experiment: Cell cycle arrest in human K562 cells assessed as accumulation of cells at S phase at 10 nM after 48 hrs by propidium iodide staining-based flow cytometric analysis (reference value: 36.27%); type: functional
K562 [8] = experiment: Induction of mitochondrial membrane potential disruption in human K562 cells assessed as intact mitochondrial membrane potential at 5 nM after 48 hrs by JC-1 staining-based flow cytometric analysis (reference value: 99.12%); type: functional
[9] = Cytotoxicity against human MDA-MB-231 cells assessed as growth inhibition at 10 nM after 48 hrs; type: cell-based; conditions: read-out: GI
[10] = Toxicity in ICR mouse assessed as mouse survival at 1000 mg/kg, iv for 14 days relative to control; type: organism-based; conditions: in vivo
[11] = Hepatotoxicity in ICR mouse xenografted with […] cells at 10 to 20 mg/kg, iv qd for 21 consecutive days by H and E staining-based assay; type: toxicity, organism-based; conditions: in vivo
K562 [12] = experiment: Induction of apoptosis in human K562 assessed as viable cells at 5 nM after 48 hrs by Annexin V-APC/propidium iodide staining-based flow cytometric analysis (reference value: 92.34%); type: functional; conditions: K562, 48 h, read-out: Activity
[13] = Renal toxicity in ICR mouse xenografted with […] cells at 10 to 20 mg/kg, iv qd for 21 consecutive days by H and E staining-based assay; type: organism-based; conditions: in vivo
K562 [14] = experiment: Induction of mitochondrial membrane potential disruption in human K562 cells assessed as intact mitochondrial membrane potential at 20 nM after 48 hrs by JC-1 staining-based flow cytometric analysis (reference value: 99.12%); type: functional
Tubulin = Tubulin (Sus scrofa, UniProt P02554+P02550); experiment: Inhibition of porcine brain tubulin polymerization measured every 2 mins for 60 mins by spectrophotometric analysis
K562 [15] = experiment: Induction of apoptosis in human K562 assessed as viable cells at 10 nM after 48 hrs by Annexin V-APC/propidium iodide staining-based flow cytometric analysis (reference value: 92.34%); type: functional; conditions: K562, 48 h, read-out: Activity
K562 [16] = experiment: Induction of mitochondrial membrane potential disruption in human K562 cells assessed as collapsed mitochondrial membrane potential at 10 nM after 48 hrs by JC-1 staining-based flow cytometric analysis (reference value: 0.63%); type: functional
[17] = Toxicity in ICR mouse xenografted with […] cells assessed as effect on spleen at 10 to 20 mg/kg, iv qd for 21 consecutive days by H and E staining-based assay; type: organism-based; conditions: in vivo
K562 [18] = experiment: Cell cycle arrest in human K562 cells assessed as accumulation of cells at G1 phase at 20 nM after 48 hrs by propidium iodide staining-based flow cytometric analysis (reference value: 47.91%); type: functional
K562 [19] = experiment: Cell cycle arrest in human K562 cells assessed as accumulation of cells at G1 phase at 5 nM after 48 hrs by propidium iodide staining-based flow cytometric analysis (reference value: 47.91%); type: functional
K562 [20] = experiment: Induction of apoptosis in human K562 assessed as early apoptotic cells at 5 nM after 48 hrs by Annexin V-APC/propidium iodide staining-based flow cytometric analysis (reference value: 4.44%); type: functional
K562 [21] = experiment: Cell cycle arrest in human K562 cells assessed as accumulation of cells at S phase at 5 nM after 48 hrs by propidium iodide staining-based flow cytometric analysis (reference value: 36.27%); type: functional
[22] = Toxicity in ICR mouse assessed as mouse survival at 640 mg/kg, iv for 14 days relative to control; type: organism-based; conditions: in vivo
[23] = Toxicity in ICR mouse xenografted with […] cells assessed as decrease in body weight at 10 to 20 mg/kg, iv qd administered for 21 days and measured every 2 days; type: organism-based; conditions: in vivo
[24] = Toxicity in ICR mouse assessed as mouse survival at 512 mg/kg, iv for 14 days relative to control; type: organism-based; conditions: in vivo
K562 [25] = experiment: Induction of mitochondrial membrane potential disruption in human K562 cells assessed as collapsed mitochondrial membrane potential at 20 nM after 48 hrs by JC-1 staining-based flow cytometric analysis (reference value: 0.63%); type: functional
[26] = Aqueous solubility in pH 7.4 phosphate buffer by HPLC analysis; type: physicochemical
K562 [27] = experiment: Cell cycle arrest in human K562 cells assessed as accumulation of cells at S phase at 20 nM after 48 hrs by propidium iodide staining-based flow cytometric analysis (reference value: 36.27%); type: functional
K562 [28] = experiment: Induction of mitochondrial membrane potential disruption in human K562 cells assessed as intact mitochondrial membrane potential at 10 nM after 48 hrs by JC-1 staining-based flow cytometric analysis (reference value: 99.12%); type: functional
L02 = experiment: Cytotoxicity against human LO2 cells after 72 hrs by MTT assay; type: cell-based; conditions: L02, 72 h
K562 [29] = experiment: Induction of apoptosis in human K562 assessed as necrotic cells at 10 nM after 48 hrs by Annexin V-APC/propidium iodide staining-based flow cytometric analysis (reference value: 1.92%); type: functional
[30] = Cardiotoxicity in ICR mouse xenografted with […] cells at 10 to 20 mg/kg, iv qd for 21 consecutive days by H and E staining-based assay; type: toxicity, organism-based; conditions: in vivo
KB = experiment: Antiproliferative activity against human KB cells after 72 hrs by MTT assay; type: functional, cell-based
[31] = Toxicity in ICR mouse assessed as mouse survival at 409.6 mg/kg, iv for 14 days relative to control; type: organism-based; conditions: in vivo
[32] = Toxicity in ICR mouse xenografted with […] cells assessed as effect on lung at 10 to 20 mg/kg, iv qd for 21 consecutive days by H and E staining-based assay; type: organism-based; conditions: in vivo
MDA-MB-231 = experiment: Antiproliferative activity against human MDA-MB-231 cells after 72 hrs by MTT assay; type: functional, cell-based; conditions: MDA-MB-231, 72 h

COc1ccc(/C=C(\C)C(=O)c2cc(C)nc3ccccc23)cc1O showed an Activity (K562 [1]) of 22.85%, a pIC50 (HCT-8) of 7.82 and an Activity (K562 [2]) of 23.28%. It also gave an Activity (K562 [3]) of 26.98%, a selectivity ratio [4] of 65.8 and an Activity (K562 [5]) of 15.02%. It also gave an Activity [6] of 65.3%, an Activity (K562 [7]) of 24.94% and an Activity (K562 [8]) of 84.97%. The inhibition at 48 h, 0.01 µM [9] was under 10%, the survival at 336 h [10] was 10% and the Activity [11] was “Non-Toxic”. For the same compound, the viability at 0.005 µM (K562 [12]) was 80.2%, the Activity [13] was “Non-Toxic” and the Activity (K562 [14]) was 46.39%. The IC50 (Tubulin) was 1710 nM, the viability at 0.01 µM (K562 [15]) was 62.7% and the Activity (K562 [16]) was 26.2%. For the same compound, the Activity [17] was “Non-Toxic”, the Activity (K562 [18]) was 42.68% and the Activity (K562 [19]) was 50.41%. It also gave an Activity (K562 [20]) of 12.87%, an Activity (K562 [21]) of 31.55% and a survival at 336 h [22] of 60%. The Activity [23] was “Non-Toxic”, the survival at 336 h [24] was 80% and the Activity (K562 [25]) was 53.39%. For the same compound, the solubility [26] was 16 µg/mL (≈ 48 µM), the Activity (K562 [27]) was 30.35% and the Activity (K562 [28]) was 73.8%. The pIC50 (L02) was 6.01, the Activity (K562 [29]) was 2.77% and the Activity [30] was “Non-Toxic”. The pIC50 (KB) was 7.80, the survival at 336 h [31] was 90% and the Activity [32] was “Non-Toxic”. For the same compound, the pIC50 (MDA-MB-231) was 7.82.
